Measured values: article PMC8395214, “Promising Anticancer Activity of [Bis(1,8-quinolato)palladium (II)] Alone and in Combination” (International Journal of Molecular Sciences, 2021)
Where two headings read alike, the source gives them in different places.

How the values were obtained:
[1] = tested on: Raji (lymphoma), Hela (cervical) and PC-3 (prostate) cancer cell line; conditions: cited from earlier work
Caco-2 cell line = experiment: Binary sequenced combination study (MTT, CI and dose-effect parameters); format: cell-based, human; conditions: single drug; for IC50: read-out: Dm (median effect dose)
Method: (§1) Binary sequenced combinations of NH3 with curcumin and EGCG have been investigated in both ovarian and colorectal cancer models using four different cell lines.
(§2) The method for determining single drug cytotoxicity and activity of drugs in sequenced combination was the same as described in our previous articles. […] The plates were then left to incubate under normal growth conditions for 72 h. […] Four hours after the addition of the MTT solution (50 µL per well of 1 mg/mL MTT solution), the purple formazan crystals produced from the reduction of MTT were dissolved in 150 µL DMSO and read with a iMarkTM Bio-Rad Microplate Reader Version 1.04.02.E. The IC50 values were obtained from the results of at least three independent experiments. Proteomic study was conducted following same procedure mentioned before in our published research article.

A2780 cell line [2] = experiment: as above; format: cell-based, human; conditions: single drug; for IC50: read-out: Dm (median effect dose)
Method: as §1, §2

HT-29 cell line [3] = experiment: as above; format: cell-based, human; conditions: single drug; for IC50: read-out: Dm (median effect dose)
Method: as §1, §2

A2780^cisR cell line [4] = experiment: as above; format: cell-based, human; conditions: single drug; for IC50: read-out: Dm (median effect dose)
Method: as §1, §2

A2780^cisR cell line [5] = format: cell-based, human
Excerpt: (§3) The study has provided information on the underlying mechanism of antitumor activity of NH3 alone in different cell lines. Total of 19 (seven from A2780 cell line, nine from A2780^cisR cell line and three from HT-29 cell line) proteins have been identified from the present study that underwent significant changes in expression following treatment with NH3 alone. Change in folds of the respective proteins after treatment with NH3 alone is shown in Table 2 (A2780 cell line), Table 3 (A2780^cisR cell line) and Table 4 (HT-29 cell line).
as §2

A2780 cell line [6] = experiment: Proteomic study, protein expression after treatment with NH3 alone; format: cell-based, human
Excerpt: as §3, §2

HT-29 cell line [7] = experiment: as above; format: cell-based, human
Excerpt: as §3, §2

MCF-7 = experiment: MTT reduction assay, cytotoxicity; format: cell-based, human; conditions: MCF-7 cell line
Method: (§4) Dose response curves have been presented in Supplementary File (Figures S1–S5).
as §2

A2780^ZDO473R = experiment: MTT reduction assay, cytotoxicity; format: cell-based, human
Method: as §4, §2

A2780 = experiment: MTT reduction assay, cytotoxicity; format: cell-based, human; conditions: parent ovarian A2780 cell line
Method: as §4, §2

Hela = experiment: MTT reduction assay, cytotoxicity; format: cell-based, human; conditions: Hela cell line
Method: as §4, §2

A2780^cisR = experiment: MTT reduction assay, cytotoxicity; format: cell-based, human; conditions: A2780^cisR cell line
Method: as §4, §2

[8] = tested on: Swiss-albino adult male mice; experiment: Twenty days in vivo toxicity study; conditions: for Survival of mice till the end of the experiment: subcutaneous, twenty days study; for Creatinine / SGOT / SGPT: serum
Method: Experimental animals: Thirty six Swiss-albino adult male mice (body weight range 20 ± 5 gm) were purchased from the Department of Pharmacy, Jahangirnagar University, Bangladesh. Mice were housed in a 12 h day night cycle (light on at 7 am and off at 7 pm) providing bench light of 350 lux, at 25 ± 2 °C temperature and 55 ± 10% humidity. Mice were reared in the cages (580 × 375 × 190 mm), supplied with commercially available food pellet [Rodent diet, ICDDRB, Bangladesh] and drinking water ad libitum. Body weight of each mouse was measured twice every day and other physical changes recorded.
Animal sacrifice, blood and organs collection: Twenty four hours following the last treatment and test, the mice were kept in fasting overnight. Then, they were anaesthetized with intraperitoneal injection of sodium pentobarbital (35 mg/kbw) [Phenobarbital, Incepta Pharmaceuticals, Bangladesh] and sacrificed as shown in Table 9
Blood was collected immediately, centrifuged at 1000 rpm, collected plasma and serum were preserved at –80 °C for biochemical study (SGPT, SGOT and Creatinine). Biochemical investigations were carried out in an auto analyzer (Photometer 5010 V5+, Robert Riely, Berlin, Germany) using Sigma Aldrich (Saint Louis, MO, USA) reagent kit. The mice model preliminary toxicity study was approved by the Biosafety, Biosecurity and Ethical Committee [Approval Number: BBEC-JU/M2019(12)1] of Jahangirnagar University, Savar, Dhaka, Bangladesh. Statistical analysis was conducted through SPSS using Satterthwaite’s method for equality of variances.

For `Oc1cccc2cccnc12` [8-Hydroxyquinoline], the Antitumor activity [1] is given as “significant antitumor activity”.
In the case of `COc1cc(/C=C/C(=O)CC(=O)/C=C/c2ccc(O)c(OC)c2)ccc1O` [Curcumin, curcumin], the IC50 (Caco-2 cell line; Homo sapiens) is reported as 21.9 µM, the “m (exponent defining the shape of the dose–effect curve)” value (Caco-2 cell line) is reported as 1.08 and the IC50 (A2780 cell line [2]; Homo sapiens) is reported as 8.63 µM. For the same molecule, the “m (exponent defining the shape of the dose–effect curve)” value (A2780 cell line [2]) was 1.25, the IC50 (HT-29 cell line [3]; Homo sapiens) was 16.6 µM and the “m (exponent defining the shape of the dose–effect curve)” value (HT-29 cell line [3]) was 1.25. The IC50 (A2780^cisR cell line [4]; Homo sapiens, A2780cisR) was 16.7 µM and the “m (exponent defining the shape of the dose–effect curve)” value (A2780^cisR cell line [4]) was 1.56.
With `O=C(O[C@@H]1Cc2c(O)cc(O)cc2O[C@@H]1c1cc(O)c(O)c(O)c1)c1cc(O)c(O)c(O)c1` [EGCG, epigallocatechin gallate] the “m (exponent defining the shape of the dose–effect curve)” value (Caco-2 cell line) was 1.32, the IC50 (Caco-2 cell line) was 108 µM and the “m (exponent defining the shape of the dose–effect curve)” value (A2780 cell line [2]) was 0.94. For the same molecule, the IC50 (A2780 cell line [2]) was 10.3 µM, the “m (exponent defining the shape of the dose–effect curve)” value (HT-29 cell line [3]) was 0.39 and the IC50 (HT-29 cell line [3]) was 3.67 µM. For the same molecule, the “m (exponent defining the shape of the dose–effect curve)” value (A2780^cisR cell line [4]) was 0.93 and the IC50 (A2780^cisR cell line [4]) was 8.9 µM.
In the case of `[O-]c1cccc2cccnc12.[O-]c1cccc2cccnc12.[Pd+2]` [NH3, [Bis(1,8-quinolato)palladium (II)]], the “Change in Expression: Actin, cytoplasmic 1” value (“Change in Expression: Actin” for short) (A2780^cisR cell line [5]; spot 1) is reported as “Downregulated”, the “Fold change: Actin, cytoplasmic 1” value (A2780^cisR cell line [5]; spot 1, Downregulated) is reported as 1.51 and the “Change in Expression: 40S ribosomal protein SA” value (A2780^cisR cell line [5]; spot Cn9) is reported as “Downregulated”. For the same molecule, the “Fold change: 40S ribosomal protein SA” value (A2780^cisR cell line [5]; spot Cn9, Downregulated) was 2.98, the “Change in Expression: Heat shock cognate 71 kDa protein” value (A2780^cisR cell line [5]; spot Cn16) was “Downregulated” and the “Fold change: Heat shock cognate 71 kDa protein” value (A2780^cisR cell line [5]; spot Cn16, Downregulated) was 1.69. The “Fold change: Keratin, type II cytoskeletal 1” value (A2780^cisR cell line [5]; spot Cn23, Upregulated) was 2.47, the “Change in Expression: Elongation factor Tu, mitochondrial” value (A2780^cisR cell line [5]; spot Cn34) was “Downregulated” and the “Fold change: Elongation factor Tu, mitochondrial” value (A2780^cisR cell line [5]; spot Cn34, Downregulated) was 7.86. The “Change in Expression: Citrate synthase, mitochondrial” value (A2780^cisR cell line [5]; spot Cn41) was “Downregulated”, the “Fold change: Citrate synthase, mitochondrial” value (A2780^cisR cell line [5]; spot Cn41, Downregulated) was 2.93 and the “Change in Expression: Transitional endoplasmic reticulum ATPase” value (A2780^cisR cell line [5]; spot Cn56) was “Downregulated”. For the same molecule, the “Fold change: Transitional endoplasmic reticulum ATPase” value (A2780^cisR cell line [5]; spot Cn56, Downregulated) was 3.87, the “Change in Expression: Cofilin-1” value (A2780^cisR cell line [5]; spot Cn69) was “Downregulated” and the “Fold change: Cofilin-1” value (A2780^cisR cell line [5]; spot Cn69, Downregulated) was 2.27. The “Change in Expression: Actin” value (A2780^cisR cell line [5]; spot Cn79) was “Downregulated”, the “Fold change: Actin, cytoplasmic 1” value (A2780^cisR cell line [5]; spot Cn79, Downregulated) was 2.79 and the “m (exponent defining the shape of the dose–effect curve)” value (Caco-2 cell line) was 1.96. The IC50 (Caco-2 cell line) was 0.56 µM, the “m (exponent defining the shape of the dose–effect curve)” value (A2780 cell line [2]) was 1.97 and the IC50 (A2780 cell line [2]) was 0.18 µM. For the same molecule, the “m (exponent defining the shape of the dose–effect curve)” value (HT-29 cell line [3]) was 2.06, the IC50 (HT-29 cell line [3]) was 0.38 µM and the “m (exponent defining the shape of the dose–effect curve)” value (A2780^cisR cell line [4]) was 2.05. For the same molecule, the IC50 (A2780^cisR cell line [4]) was 0.23 µM, the “Change in Expression: Actin” value (A2780 cell line [6]; spot 6) was “Downregulated” and the “Fold change: Actin, cytoplasmic 1” value (A2780 cell line [6]; spot 6, Downregulated) was 4.8. For the same molecule, the “Change in Expression: Vimentin” value (A2780 cell line [6]; spot 12) was “Downregulated”, the “Fold Change: Vimentin” value (A2780 cell line [6]; spot 12, Downregulated) was 1.63 and the “Change in Expression: 60 kDa heat shock protein, mitochondrial” value (A2780 cell line [6]; spot 13) was “Downregulated”. For the same molecule, the “Fold Change: 60 kDa heat shock protein, mitochondrial” value (A2780 cell line [6]; spot 13, Downregulated) was 3.23, the “Change in Expression: Endoplasmin” value (A2780 cell line [6]; spot 18) was “Downregulated” and the “Fold Change: Endoplasmin” value (A2780 cell line [6]; spot 18, Downregulated) was 4.56. The “Change in Expression: 78 kDa glucose-regulated protein” value (A2780 cell line [6]; spot 45) was “Downregulated”, the “Fold Change: 78 kDa glucose-regulated protein” value (A2780 cell line [6]; spot 45, Downregulated) was 2.00 and the “Change in Expression: Polyubiquitin-B” value (A2780 cell line [6]; spot 118) was “Downregulated”. For the same molecule, the “Fold Change: Polyubiquitin-B” value (A2780 cell line [6]; spot 118, Downregulated) was 11.39, the “Change in Expression: Histone H3.3” value (A2780 cell line [6]; spot 155) was “Downregulated” and the “Fold Change: Histone H3.3” value (A2780 cell line [6]; spot 155, Downregulated) was 6.63. The “Change in Expression: Nucleoside Diphosphate kinase B” value (HT-29 cell line [7]; spot Hn70) was “Downregulated”, the “Fold Change: Nucleoside Diphosphate kinase B” value (HT-29 cell line [7]; spot Hn70, Downregulated) was 2.14 and the “Change in Expression: Annexin A1” value (HT-29 cell line [7]; spot Hn89) was “Downregulated”. The “Fold Change: Annexin A1” value (HT-29 cell line [7]; spot Hn89, Downregulated) was 1.85, the “Change in Expression: Histone H4” value (HT-29 cell line [7]; spot Hn119) was “Downregulated” and the “Fold Change: Histone H4” value (HT-29 cell line [7]; spot Hn119, Downregulated) was 1.91. For the same molecule, the “times greater cytotoxicity than cisplatin” value (MCF-7) was “around 65 times”, the “times greater activity than cisplatin” value (A2780^ZDO473R) was 80 times and the “times greater activity than cisplatin” value (A2780) was 10 times. For the same molecule, the “times greater cytotoxicity than cisplatin” value (Hela) was “around 10 times”, the “times greater activity than cisplatin” value (A2780^cisR) was 90 times and the “Change in mean body weight of mice” value ([8]; both lower (2.5 mg/kg) and higher (5 mg/kg) doses, vs control groups) was “Decrease in body weight is also significant”. The “Toxicity compared to cisplatin” value ([8]; both lower (2.5 mg/kg) and higher doses (5 mg/kg), twenty days) was “less toxic”, the “Survival of mice till the end of the experiment” value ([8]; higher dose 5 mg/kg) was “only one mouse died” and the “Survival of mice till the end of the experiment” value ([8]; lower dose 2.5 mg/kg) was “All mice were alive”. The Creatinine ([8]; 2.5 mg/kg) was 0.9 ± 0.2 mg/dL, the SGOT ([8]; 2.5 mg/kg) was 53 ± 4 IU/L and the SGPT ([8]; 2.5 mg/kg) was 45 ± 3 IU/L. For the same molecule, the Creatinine ([8]; 5 mg/kg) was 0.7 ± 0.2 mg/dL, the SGOT ([8]; 5 mg/kg) was 59 ± 5 IU/L and the SGPT ([8]; 5 mg/kg) was 48 ± 4 IU/L.
